Source: patent US7785564B2, “Design and synthesis of renal dipeptidase inhibitors” (The Johns Hopkins University, priority 2002, dated 2010)
Read-outs that look alike come from different tables or passages of the source.

Legend:
Renal Dipeptidase (RDP) [1] = biological target: T1, Renal Dipeptidase (RDP) (Homo sapiens, UniProt P16444); assay: RDP inhibition assay (IC50), small intestine lysate, fluorogenic substrate ε-DNP-L-Lys-D-Amp; assay type: biochemical
T1 construct: from tissue; host or cells: small intestine lysate
T1 sequence (P16444 17-385): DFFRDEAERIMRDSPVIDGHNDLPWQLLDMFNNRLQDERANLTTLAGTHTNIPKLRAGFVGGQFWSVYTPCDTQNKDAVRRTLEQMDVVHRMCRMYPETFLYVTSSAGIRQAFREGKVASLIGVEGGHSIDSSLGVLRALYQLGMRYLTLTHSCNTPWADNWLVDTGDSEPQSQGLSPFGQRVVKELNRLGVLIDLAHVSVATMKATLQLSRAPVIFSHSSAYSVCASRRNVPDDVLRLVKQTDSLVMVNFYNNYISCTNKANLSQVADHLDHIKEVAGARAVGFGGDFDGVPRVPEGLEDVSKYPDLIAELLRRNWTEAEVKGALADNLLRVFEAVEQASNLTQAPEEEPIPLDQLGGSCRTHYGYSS
Procedure: Inhibitors were diluted from MeOH stock solution in water. […] After mixing incubated at 37° C. Florescence was measured at 30 sec intervals. The IC50 values were determined using small Intestine lysate.

Renal Dipeptidase (RDP) [2] = biological target: T2, Renal Dipeptidase (RDP) (Homo sapiens, UniProt P16444); conditions: read-out: RDP inhibition Ki; colon cancer lysate; Table 1
Procedure: The assay buffer was prepared by mixing 20 mM Tris, pH=8, 10 μM ZnCl2. 1 mM substrate (ε-DNP-L-Lys-D-Amp) stock solution in DMSO was prepared. Inhibitors were diluted from MeOH stock solution in water. […] of lysate was taken in 150 μl of assay buffer and 20 μl of inhibitor was added. The mixture was incubated at room temperature for 30 min. It was then transferred to plate containing 2 μl/well, 1 mM substrate in DMSO. After mixing incubated at 37° C. Florescence was measured at 30 sec intervals. The IC50 values were determined using small Intestine lysate. Ki values were determined for selected compounds using colon cancer lysate.
(§1) The RDP inhibition activity of these compounds was determined using crude lysates prepared from human colon cancers. The results are expressed as the concentration of inhibitor needed to inhibit enzyme activity by 50% (IC50). Human colon cancer extracts were prepared by homogenizing one cm^3 of frozen colon tissue in 10 ml of 20 mM Tris, pH 8.0, 10 μM ZnCl2, 0.1% Triton X 100. The extract was clarified by centrifugation at 13,000×g for 5 minutes at 4° C. and, for each measurement, 20 μl was diluted into 158 μl of 20 mM Tris, pH 8.0, 10 μM ZnCl2. 20 μl of the synthesised compounds were added to each reaction to obtain final concentrations ranging from 0 to 10 μM. The mixtures were incubated at room temperature for 30 minutes to allow enzyme-inhibitor complex formation, and the reactions were initiated by the addition of 2 μl of 1 mM substrate (εDNP-L-Lys-D-Amp).^14 While incubating at 37° C., fluorescence (λex=320 nm, λem=405 nm) measurements were determined at 30 sec intervals and the relative reaction rate was taken as the rate of increase of fluorescence over time.

Renal Dipeptidase (RDP) [3] = biological target: T2, Renal Dipeptidase (RDP); conditions: for RDP inhibitor potency in words / activity of Z isomers relative to their E counterparts (9, 11 and 13): human colon cancer lysate, numbering of Table 3; for IC50: read-out: RDP inhibition activity IC50, colon cancer lysate, Table 3
Procedure: as §1

SMILES	IC50 (Renal Dipeptidase (RDP) [1]; Table 1) [µM]	Ki (Renal Dipeptidase (RDP) [2]) [µM]	RDP inhibitor potency in words (Renal Dipeptidase (RDP) [3])	IC50 (Renal Dipeptidase (RDP) [3]) [µM]	activity of Z isomers relative to their E counterparts (9, 11 and 13) (Renal Dipeptidase (RDP) [3])	IC50 (Renal Dipeptidase (RDP) [1]; Table 2) [µM]
NC(CC1CCCCC1)P(=O)(O)CC(=Cc1ccc(I)cc1)C(=O)O (mixture of isomers) [compound 14]	0.045	0.003	–	–	–	–
NC(CC1CCCCC1)P(=O)(O)CC(=Cc1ccc(I)cc1)C(=O)O (mixture of isomers) [compound 15]	0.25	0.01	far less active	0.045	–	–
NC(CC1CCCCC1)P(=O)(O)C/C(=C\c1ccccc1)C(=O)O (centres unmarked) [compound 6]	0.028	0.00112	–	–	–	–
NC(CC1CCCCC1)P(=O)(O)C/C(=C/c1ccccc1)C(=O)O (centres unmarked) [compound 7]	0.04	0.0016	–	–	–	–
NC(CC1CCCCC1)P(=O)(O)C/C(=C\c1ccc(F)cc1)C(=O)O (centres unmarked) [compound 8]	0.005	0.0006	potent RDP inhibitors	0.0055	significantly more active	–
NC(CC1CCCCC1)P(=O)(O)C/C(=C/c1ccc(F)cc1)C(=O)O (centres unmarked) [compound 9]	0.015	0.00072	–	0.3	–	–
NC(CC1CCCCC1)P(=O)(O)C/C(=C\c1ccc(Br)cc1)C(=O)O (centres unmarked) [compound 10]	0.006	0.00072	potent RDP inhibitors	0.008	significantly more active	–
NC(CC1CCCCC1)P(=O)(O)C/C(=C/c1ccc(Br)cc1)C(=O)O (centres unmarked) [compound 11]	0.03	0.0024	–	0.025	–	–
NC(CC1CCCCC1)P(=O)(O)C/C(=C\c1ccc(I)cc1)C(=O)O (centres unmarked) [compound 12]	0.008	0.0006	potent RDP inhibitors	0.0035	significantly more active	–
NC(CC1CCCCC1)P(=O)(O)C/C(=C/c1ccc(I)cc1)C(=O)O (centres unmarked) [compound 13]	0.025	0.002	–	0.06	–	–
NC(CC1CCCCC1)P(=O)(O)C/C(=C\c1ccc(C(F)(F)F)cc1)C(=O)O (centres unmarked) [compound 18]	–	–	–	–	–	0.01
NC(CC1CCCCC1)P(=O)(O)C/C(=C/c1ccc(C(F)(F)F)cc1)C(=O)O (centres unmarked) [compound 19]	–	–	–	–	–	0.2
CCN(CC)c1ccc(/C=C(\CP(=O)(O)C(N)CC2CCCCC2)C(=O)O)cc1 (centres unmarked) [compound 26]	–	–	–	–	–	0.07
CCN(CC)c1ccc(/C=C(/CP(=O)(O)C(N)CC2CCCCC2)C(=O)O)cc1 (centres unmarked) [compound 27]	–	–	–	–	–	0.15
